Test results reported in US20040191833A1, “Selective activation of cellular activities mediated through a common toll-like receptor” (3M Innovative Properties Company, priority 2003, published 2004).

Columns and labels:
[1] = biological target: T1, human TLR7 (Homo sapiens, UniProt Q9NYK1); experiment: TLR7 activation in HEK293 cells (NF-kB-luc luciferase reporter, H-TLR7/H-vector); type: cell-based; settings: final IRM concentration 10 μM, 16 hours, normalized to the DMSO without compound control
T1 construct: expressed in transfected cells; host or cells: Namalwa cells (ATCC CRL-1432), pCI-neo vector, electroporated, G418 selected, with pIFN-α1-luc reporter
T1 sequence (Q9NYK1 27-1049): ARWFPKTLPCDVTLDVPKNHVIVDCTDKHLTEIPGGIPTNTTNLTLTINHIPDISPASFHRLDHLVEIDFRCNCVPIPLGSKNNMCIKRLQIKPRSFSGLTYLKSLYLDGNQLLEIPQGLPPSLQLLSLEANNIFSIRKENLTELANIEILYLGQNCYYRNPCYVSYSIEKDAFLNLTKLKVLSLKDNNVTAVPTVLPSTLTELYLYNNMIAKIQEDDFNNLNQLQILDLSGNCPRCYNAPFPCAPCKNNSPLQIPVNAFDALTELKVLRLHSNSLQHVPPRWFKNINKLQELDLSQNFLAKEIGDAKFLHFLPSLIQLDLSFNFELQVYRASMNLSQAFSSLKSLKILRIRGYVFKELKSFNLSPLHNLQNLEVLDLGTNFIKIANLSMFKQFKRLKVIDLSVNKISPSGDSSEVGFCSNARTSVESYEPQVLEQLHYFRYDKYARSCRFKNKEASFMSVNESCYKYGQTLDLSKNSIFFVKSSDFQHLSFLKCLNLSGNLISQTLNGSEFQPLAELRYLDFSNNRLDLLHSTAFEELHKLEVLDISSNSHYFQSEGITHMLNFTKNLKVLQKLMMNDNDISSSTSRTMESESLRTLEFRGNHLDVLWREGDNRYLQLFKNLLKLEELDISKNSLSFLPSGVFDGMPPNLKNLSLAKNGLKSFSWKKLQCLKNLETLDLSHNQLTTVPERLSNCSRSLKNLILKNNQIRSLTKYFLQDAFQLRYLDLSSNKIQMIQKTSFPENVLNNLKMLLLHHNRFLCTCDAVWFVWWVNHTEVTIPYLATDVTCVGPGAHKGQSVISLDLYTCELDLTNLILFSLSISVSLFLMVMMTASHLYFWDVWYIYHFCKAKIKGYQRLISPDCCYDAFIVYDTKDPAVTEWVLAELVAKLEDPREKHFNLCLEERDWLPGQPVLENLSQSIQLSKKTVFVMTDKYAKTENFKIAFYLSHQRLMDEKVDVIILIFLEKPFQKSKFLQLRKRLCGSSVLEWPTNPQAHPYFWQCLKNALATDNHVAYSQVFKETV
Method: (§1) In one embodiment, exemplified in Example 1, selective modulation of TLR7-mediated NF-κB activation and TLR7-mediated IFN-α1 induction were assayed. NF-κB activation was measured in genetically modified HEK293 cells (H-TLR7) by detecting TLR7-mediated NF-κB-dependent transcription of a luciferase reporter. IFN-α1 induction was measured in genetically modified Namalwa cells (N-TLR7) by detecting TLR-mediated IFN-α1-induced transcription of a luciferase reporter. Results are shown in Table 2 and are expressed as the fold increase in TLR7-mediated luciferase signal—(H-TLR7/H-vector) and (N-TLR7/N-vector), respectively—normalized to a control in which the cells were treated with vehicle that contained no IRM compound. In this assay, a compound was considered to induce the TLR7-mediated cellular activity if the compound generated at least a two-fold increase in the luciferase signal compared to the vector control.
HEK293 medium was prepared from 90% Minimum Essential Medium (MEM) with 2 mM L-glutamine and Earle's Balanced Salt Solution (Invitrogen Corp., Rockville, Md.) adjusted to contain 1.5 g/L sodium bicarbonate, 0.1 mM non-essential amino acids, and 1.0 mM sodium pyruvate; 10% heat-inactivated fetal calf serum. HEK293 cells were cultured by incubating cells in HEK293 medium overnight at 37° C, 8% CO2.
Twenty-four hours before transfection, HEK293 cells were adhered to a 10 cm dish (Corning 430167, Corning Inc., Corning, N.Y.) at 37° C., 8% CO2. The cells were co-transfected with (1) pIRES (BD Biosciences Clontech, Palo Alto, Calif.) either (a) unmodified (H-vector), or (b) containing an expressible human TLR7 gene (H-TLR7), and (2) NF-kB-luc reporter (Stratagene, La Jolla, Calif.) in a 10:1 ratio with Fugene 6 transfection reagent (Roche Diagnostics Corp., Indianapolis, Ind.) following the manufacturer's instructions. The plates were incubated for 24 hours following transfection and then selected in G-418 (400 μg/mL) for two weeks. The G-418-resistant cells containing either the expressible TLR7 gene or the empty vector were expanded in HEK293 medium supplemented with G-418 for stimulation experiments.
The transfected cells were plated in white opaque 96 well plates (Costar 3917, Corning Inc., Corning, N.Y.) at a concentration of 5×10^4 cells per well in 100 μL of HEK293 media and incubated at 37° C., 8% CO2 for 4 hours. The cells were stimulated with 1 μL of IRM compounds at 1 mM in DMSO (final IRM concentration of 10 μM) or 1 μL DMSO as a control. The plates were then incubated an additional 16 hours at 37° C., 5% CO2. The luciferase signal was read using the LucLite kit (Packard Instrument Co., Meriden, Conn.). Luminescence was measured on an LMAX luminometer (Molecular Devices Corp., Sunnyvale, Calif.).
(§2) The data are expressed as fold increase in TLR7-mediated luciferase signal—(H-TLR7/H-vector) and (N-TLR7/N-vector), respectively—normalized to the DMSO without compound control.

[2] = biological target: T1, human TLR7; experiment: TLR7 activation in Namalwa cells (IFN-α1 promoter luciferase reporter, N-TLR7/N-vector); type: cell-based; settings: final IRM concentration 10 μM, 18 hours, normalized to the DMSO without compound control
Method: as §1
Unless otherwise indicated, all incubations were performed at 37° C. with 5% CO2 at 98% humidity.
Culture medium was prepared from complete RPMI 1640 medium (BioSource International, Inc., Camarillo, Calif.). Fetal bovine serum (Atlas Biologicals, Inc., Ft. Collins, Colo.) was added to a final concentration of 7.5% (vol/vol); L-glutamine (BioSource International, Inc.) was added to 5 mM; and sodium pyruvate (BioSource International, Inc.) was added to 1 mM.
Namalwa cells were grown by incubation in culture medium overnight. Cells were harvested by centrifugation in a tabletop centrifuge (1200 RPM for 5 minutes), and then resuspended in phosphate buffered sucrose to a concentration of 1.3×10^7 cells/mL.
For each transfection, a 750 μL aliquot of the cell suspension was placed in an electroporation cuvette with 4 mm gaps. Each aliquot received transfection DNA: 10 μg of pGL3-Enhancing vector (Promega Corp., Madison, Wis.) containing the human IFN-α1 promoter cloned into the BglII site (pIFN-α1-luc), and 10 μg of pCI-neo mammalian expression vector (Promega Corp.) either (1) unmodified (N-vector) or (2) containing an expressible human TLR7 gene (N-TLR7). The cell and vector mixtures were incubated at room temperature for 5 minutes. The cells were electroporated using a BioRad Gene Pulser (BioRad Laboratories, Hercules, Calif.) set to at 500 μF capacitance and […], then incubated at room temperature for 5 minutes.
The electroporated cells were suspended in 10 mL of culture medium and incubated overnight. Dead cells and debris were removed after 24 hours using a MACS Dead Cell Removal kit (Miltenyi Biotec, Auburn, Calif.). Cells were resuspended in 10 mL of culture medium and incubated for an additional 24 hours.
Transfected cells were selected by adding G418 (Promega Corp., Madison, Wisc.) to a final concentration of 1 mg/mL and incubating the cells for seven days.
The selected transfected cells were counted and resuspended to a concentration of 1×10^6 cell per mL in culture medium. 100 μl aliquots of cells were placed in the wells of a white-walled, white-bottomed 96-well plate (Corning, Inc. Corning, N.Y.). 1.0 μL of an IRM compound from Table 1 (prepared at 1 mM in 100% DMSO) was added to some cell aliquots so that the final concentration of IRM compound was 10 μM. As a positive control, some cell aliquots were incubated with Sendai virus instead of IRM compound. As a negative control, some cell aliquots were incubated with DMSO without IRM compound. In all cases, the cells were incubated for 18 hours.
The plates were equilibrated to room temperature before 1 volume of reconstituted LucLight Plus (Packard Instruments, Meriden, Conn.) was added to each aliquot of cells. Each well of the plate was read on an LJL Analyst (LJL Biosystems, Inc., Sunnyvale, Calif.) set with a 5 minute dark adapt.
as §2

Row | Compound | H-TLR7: fold increase in TLR7-mediated luciferase signal (H-TLR7/H-vector), NF-κB-dependent reporter [1] [fold] | N-TLR7: fold increase in TLR7-mediated luciferase signal (N-TLR7/N-vector), IFN-α1 promoter reporter [2] [fold]
1 | CCc1nc2c(N)nc3ccccc3c2n1CCOCCNC(=O)Nc1ccccc1 [IRM20, N-{2-[2-(4-amino-2-ethyl-1H-imidazo[4,5-c]quinolin-1-yl)ethoxy]ethyl}-N′-phenylurea] | 0.8 | 3.7
2 | CCOCc1nc2c(N)nc3ccccc3c2n1CC(C)C [IRM22, 2-(ethoxymethyl)-1-(2-methylpropyl)-1H-imidazo[4,5-c]quinolin-4-amine] | 5.5 | 2.2
3 | COCCc1nc2c(N)nc3ccccc3c2n1CCCNS(=O)(=O)c1ccccc1 [IRM7, N-{3-[4-amino-2-(2-methoxyethyl)-1H-imidazo[4,5-c]-1-yl]propyl}benzenesulfonamide] | 4.7 | 1.6
4 | CCCCc1nc2c(N)nc3ncccc3c2n1CC(C)C [IRM10, 2-butyl-1-(2-methylpropyl)-1H-imidazo[4,5-c][1,8]naphthyridin-4-amine] | 1.1 | 4.4
5 | Nc1nc2ccccc2c2c1ncn2CCOCC#Cc1csc(C=O)c1 [IRM1, 4-{3-[2-(4-amino-1H-imidazo[4,5-c]quinolin-1-yl)ethoxy]-1-propynyl}-2-thiophenecarboxaldehyde] | 13.2 | 1.6
6 | CCCCSCCCCn1c(CC)nc2c(N)nc3ccccc3c21 [IRM6, 1-[4-(butylthio)butyl]-2-ethyl-1H-imidazo[4,5-c]quinolin-4-amine] | 7.1 | 1.4
7 | Cc1nc2c(N)nc3ccccc3c2n1CCCNC(=O)C1CCCC1 [IRM16, N-[3-(4-amino-2-methyl-1H-imidazo[4,5-c]quinolin-1-yl)propyl]cyclopentanecarboxamide] | 0.9 | 2.8
8 | Nc1nc2ccccc2c2c1ncn2CCOCCCc1cncnc1 [IRM12, 1-{2-[3-(5-pyrimidinyl)propoxy]ethyl}-1H-imidazo[4,5-c]quinolin-4-amine] | 0.6 | 2.6
9 | CCCCc1nc2c(N)nc3ccccc3c2n1CCCNC(=O)c1cc2ccccc2cn1 [IRM3, N-[3-(4-amino-2-butyl-1H-imidazo[4,5-c]quinolin-1-yl)propyl]isoquinoline-3-carboxamide] | 4.2 | 1.9
10 | Cc1nc2c(N)nc3ccccc3c2n1CCOCCNS(C)(=O)=O [IRM19, N-{2-[2-(4-amino-2-methyl-1H-imidazo[4,5-c]-1-yl)ethoxy]ethyl}methanesulfonamide] | 0.9 | 3.3
11 | CCOCc1nc2c(N)nc3ccccc3c2n1CCCCNC(=O)N1CCOCC1 [IRM18] | 0.5 | 3.3
12 | COCCc1nc2c(N)nc3ccccc3c2n1CCCCCCCCNC(=O)Nc1ccccc1 [IRM2, N-{8-[4-amino-2-(2-methoxyethyl)-1H-imidazo[4,5-c]quinolin-1-yl]octyl}-N′-phenylurea] | 4.1 | 1.5
